In US10906873B2, “Substituted cyclic amides as herbicides” (FMC Corporation, priority 2015, dated 2021):

Tests used:
Format in all cases: in vivo
[1] = test system: ryegrass, It. (Italian ryegrass, Lolium multiflorum); assay: Test A preemergence, ryegrass, It.; settings: 0 to 100 scale
From the text: (§1) Seeds of plant species selected from barnyardgrass (Echinochloa crus-galli), crabgrass (large crabgrass, Digitaria sanguinalis), kochia (Kochia scoparia), ragweed (common ragweed, Ambrosia elatior), morningglory (Ipomoea spp.), velvetleaf (Abutilon theophrasti), ryegrass, It. (Italian ryegrass, Lolium multiflorum), foxtail, giant (giant foxtail, Setaria faberii), wheat (Triticum aestivum), corn (Zea mays), and pigweed (Amaranthus retroflexus), were planted into a blend of loam soil and sand and treated preemergence with a directed soil spray using test chemicals formulated in a non-phytotoxic solvent mixture which included a surfactant. At the same time, plants selected from these crop and weed species and also blackgrass (Alopecurus myosuroides), and galium (catchweed bedstraw, Galium aparine), were planted in pots containing the same blend of loam soil and sand and treated with postemergence applications of test chemicals formulated in the same manner. Plants ranged in height from 2 to 10 cm and were in the one- to two-leaf stage for the postemergence treatment. Treated plants and untreated controls were maintained in a greenhouse for approximately 10 d, after which time all treated plants were compared to untreated controls and visually evaluated for injury. Plant response ratings, summarized in Table A, are based on a 0 to 100 scale where 0 is no effect and 100 is complete control. A dash (-) response means no test result.

[2] = test system: ducksalad (Heteranthera limosa); assay: Test B flooded paddy test, ducksalad; settings: Flood, scale of 0 to 100 where 0 is no effect and 100 is complete control, 13 to 15 d
Method: (§2) Plant species in the flooded paddy test selected from rice (Oryza sativa), sedge, umbrella (small-flower umbrella sedge, Cyperus difformis), ducksalad (Heteranthera limosa), and barnyardgrass (Echinochloa crus-galli) were grown to the 2-leaf stage for testing. At time of treatment, test pots were flooded to 3 cm above the soil surface, treated by application of test compounds directly to the paddy water, and then maintained at that water depth for the duration of the test. Treated plants and controls were maintained in a greenhouse for 13 to 15 d, after which time all species were compared to controls and visually evaluated. Plant response ratings, summarized in Table B, are based on a scale of 0 to 100 where 0 is no effect and 100 is complete control. A dash (-) response means no test result.

[3] = test system: blackgrass (Alopecurus myosuroides); assay: Test A postemergence, blackgrass; settings: 0 to 100 scale
From the text: as §1

[4] = test system: barnyardgrass (Echinochloa crus-galli); assay: Test A postemergence, barnyardgrass; settings: 0 to 100 scale
From the text: as §1

[5] = test system: barnyardgrass (Echinochloa crus-galli); assay: Test B flooded paddy test, barnyardgrass; settings: Flood, scale of 0 to 100 where 0 is no effect and 100 is complete control, 13 to 15 d
Method: as §2

[6] = test system: pigweed (Amaranthus retroflexus); assay: Test A postemergence, pigweed; settings: 0 to 100 scale
From the text: as §1

[7] = test system: wheat (Triticum aestivum); assay: Test A postemergence, wheat; settings: 0 to 100 scale
From the text: as §1

[8] = test system: foxtail, giant (giant foxtail, Setaria faberii); assay: Test A preemergence, foxtail, giant; settings: 0 to 100 scale
From the text: as §1

kochia (Kochia scoparia) [9] = assay: Test A postemergence, kochia; settings: 0 to 100 scale
From the text: as §1

kochia (Kochia scoparia) [10] = assay: Test A preemergence, kochia; settings: 0 to 100 scale
From the text: as §1

[11] = test system: pigweed (Amaranthus retroflexus); assay: Test A preemergence, pigweed; settings: 0 to 100 scale
From the text: as §1

rice (Oryza sativa) = assay: Test B flooded paddy test, rice; settings: Flood, scale of 0 to 100 where 0 is no effect and 100 is complete control, 13 to 15 d
Method: as §2

[12] = test system: ragweed (common ragweed, Ambrosia elatior); assay: Test A postemergence, ragweed; settings: 0 to 100 scale
From the text: as §1

[13] = test system: galium (catchweed bedstraw, Galium aparine); assay: Test A postemergence, galium; settings: 0 to 100 scale
From the text: as §1

[14] = test system: ryegrass, It. (Italian ryegrass, Lolium multiflorum); assay: Test A postemergence, ryegrass, It.; settings: 0 to 100 scale
From the text: as §1

[15] = test system: barnyardgrass (Echinochloa crus-galli); assay: Test A preemergence, barnyardgrass; settings: 0 to 100 scale
From the text: as §1

[16] = test system: ragweed (common ragweed, Ambrosia elatior); assay: Test A preemergence, ragweed; settings: 0 to 100 scale
From the text: as §1

[17] = test system: sedge, umbrella (small-flower umbrella sedge, Cyperus difformis); assay: Test B flooded paddy test, sedge, umbrella; settings: Flood, scale of 0 to 100 where 0 is no effect and 100 is complete control, 13 to 15 d
Method: as §2

[18] = test system: foxtail, giant (giant foxtail, Setaria faberii); assay: Test A postemergence, foxtail, giant; settings: 0 to 100 scale
From the text: as §1

corn (Zea mays) = assay: Test A postemergence, corn; settings: 0 to 100 scale
From the text: as §1

| SMILES | Plant response rating, Ryegrass, It. ([1]; 125 g ai/ha) | Plant response rating, Ryegrass, It. ([1]; 500 g ai/ha) | Plant response rating, Blackgrass ([3]; 125 g ai/ha) | Plant response rating, Blackgrass ([3]; 500 g ai/ha) | Plant response rating, Barnyardgrass ([4]; 125 g ai/ha) | Plant response rating, Barnyardgrass ([4]; 500 g ai/ha) | Plant response rating, Pigweed ([6]; 125 g ai/ha) | Plant response rating, Pigweed ([6]; 500 g ai/ha) | Plant response rating, Wheat ([7]; 125 g ai/ha) | Plant response rating, Wheat ([7]; 500 g ai/ha) | Plant response rating, Foxtail, Giant ([8]; 125 g ai/ha) | Plant response rating, Foxtail, Giant ([8]; 500 g ai/ha) | Plant response rating, Kochia (kochia (Kochia scoparia) [10]; 125 g ai/ha) | Plant response rating, Kochia (kochia (Kochia scoparia) [10]; 500 g ai/ha) | Plant response rating, Pigweed ([11]; 125 g ai/ha) | Plant response rating, Pigweed ([11]; 500 g ai/ha) | Plant response rating, Ragweed ([12]; 125 g ai/ha) | Plant response rating, Ragweed ([12]; 500 g ai/ha) | Plant response rating, Galium ([13]; 125 g ai/ha) | Plant response rating, Galium ([13]; 500 g ai/ha) | also measured |
| --- | --- | --- | --- | --- | --- | --- | --- | --- | --- | --- | --- | --- | --- | --- | --- | --- | --- | --- | --- | --- | --- |
| O=C1NCC(Cc2ccccc2C(F)(F)F)C1C(=O)Nc1cccc(F)c1F (centres unmarked) [Compound 9] | 0 | 0 | 0 | 0 | 10 | 60 | 0 | 0 | 0 | 0 | 0 | 50 | 0 | 50 | 0 | 0 | 0 | 0 | 0 | 0 | Plant response rating, Ducksalad ([2]; 500 g ai/ha): 40; Plant response rating, Barnyardgrass ([5]; 500 g ai/ha): 0; Plant response rating, Kochia (kochia (Kochia scoparia) [9]; 125 g ai/ha): 0; Plant response rating, Kochia (kochia (Kochia scoparia) [9]; 500 g ai/ha): 30; Plant response rating, Rice (rice (Oryza sativa); 500 g ai/ha): 0; Plant response rating, Ryegrass, It. ([14]; 125 g ai/ha): 0; Plant response rating, Ryegrass, It. ([14]; 500 g ai/ha): 0; Plant response rating, Barnyardgrass ([15]; 125 g ai/ha): 0; Plant response rating, Barnyardgrass ([15]; 500 g ai/ha): 50; Plant response rating, Ragweed ([16]; 125 g ai/ha): 0; Plant response rating, Ragweed ([16]; 500 g ai/ha): 30; Plant response rating, Sedge, Umbrella ([17]; 500 g ai/ha): 0; Plant response rating, Foxtail, Giant ([18]; 125 g ai/ha): 0; Plant response rating, Foxtail, Giant ([18]; 500 g ai/ha): 0; Plant response rating, Corn (corn (Zea mays); 125 g ai/ha): 0; Plant response rating, Corn (corn (Zea mays); 500 g ai/ha): 0 |
| O=C1NCC(/C=C/c2ccc(F)cc2)C1C(=O)Nc1ccccc1F (centres unmarked) [Compound 27] | 0 | 20 | 0 | 0 | 0 | 60 | 0 | 20 | 0 | 0 | 0 | 60 | 0 | 40 | 0 | 0 | 0 | 0 | 0 | 0 | Plant response rating, Ducksalad ([2]; 250 g ai/ha): 80; Plant response rating, Barnyardgrass ([5]; 250 g ai/ha): 0; Plant response rating, Rice (rice (Oryza sativa); 250 g ai/ha): 0; Plant response rating, Ryegrass, It. ([14]; 125 g ai/ha): 0; Plant response rating, Ryegrass, It. ([14]; 500 g ai/ha): 0; Plant response rating, Barnyardgrass ([15]; 125 g ai/ha): 0; Plant response rating, Barnyardgrass ([15]; 500 g ai/ha): 50; Plant response rating, Ragweed ([16]; 125 g ai/ha): 0; Plant response rating, Ragweed ([16]; 500 g ai/ha): 30; Plant response rating, Sedge, Umbrella ([17]; 250 g ai/ha): 0; Plant response rating, Foxtail, Giant ([18]; 125 g ai/ha): 0; Plant response rating, Foxtail, Giant ([18]; 500 g ai/ha): 70; Plant response rating, Corn (corn (Zea mays); 125 g ai/ha): 0; Plant response rating, Corn (corn (Zea mays); 500 g ai/ha): 0 |
| O=C1NCC(/C=C/c2cccc(F)c2)C1C(=O)Nc1ccccc1F (centres unmarked) [Compound 24] | 0 | 0 | 0 | 0 | 0 | 70 | 0 | 0 | 0 | 0 | 60 | 90 | 0 | 20 | 0 | 0 | 0 | 0 | 0 | 0 | Plant response rating, Ducksalad ([2]; 250 g ai/ha): 90; Plant response rating, Barnyardgrass ([5]; 250 g ai/ha): 70; Plant response rating, Rice (rice (Oryza sativa); 250 g ai/ha): 0; Plant response rating, Ryegrass, It. ([14]; 125 g ai/ha): 0; Plant response rating, Ryegrass, It. ([14]; 500 g ai/ha): 0; Plant response rating, Barnyardgrass ([15]; 125 g ai/ha): 30; Plant response rating, Barnyardgrass ([15]; 500 g ai/ha): 70; Plant response rating, Ragweed ([16]; 125 g ai/ha): 0; Plant response rating, Ragweed ([16]; 500 g ai/ha): 30; Plant response rating, Sedge, Umbrella ([17]; 250 g ai/ha): 0; Plant response rating, Foxtail, Giant ([18]; 125 g ai/ha): 30; Plant response rating, Foxtail, Giant ([18]; 500 g ai/ha): 80; Plant response rating, Corn (corn (Zea mays); 125 g ai/ha): 0; Plant response rating, Corn (corn (Zea mays); 500 g ai/ha): 0 |
